Measurements reported in ChEMBL document CHEMBL1135394, “Improvement in the selectivity and metabolic stability of the serotonin 5-HT(1A) ligand, S 15535: a series of cis- and trans-2-(arylcycloalkylamine) 1-indanols” (J Med Chem, 2002).

Columns and labels:
[1] = Selectivity ratio towards Alpha-1 adrenergic receptor to human 5-hydroxytryptamine 1A receptor
[2] = target: T1, 5-hydroxytryptamine receptor 1A (Rattus norvegicus) (UniProt P19327); test: Antagonistic activity at postsynaptic 5-hydroxytryptamine 1A receptor was measured by its ability to inhibit hypothermia elicited by s.c. administration of 8-OH-DPAT in rat;ranges from (0.72-2.87); assay type: functional, organism-based
T1 sequence (whole entry): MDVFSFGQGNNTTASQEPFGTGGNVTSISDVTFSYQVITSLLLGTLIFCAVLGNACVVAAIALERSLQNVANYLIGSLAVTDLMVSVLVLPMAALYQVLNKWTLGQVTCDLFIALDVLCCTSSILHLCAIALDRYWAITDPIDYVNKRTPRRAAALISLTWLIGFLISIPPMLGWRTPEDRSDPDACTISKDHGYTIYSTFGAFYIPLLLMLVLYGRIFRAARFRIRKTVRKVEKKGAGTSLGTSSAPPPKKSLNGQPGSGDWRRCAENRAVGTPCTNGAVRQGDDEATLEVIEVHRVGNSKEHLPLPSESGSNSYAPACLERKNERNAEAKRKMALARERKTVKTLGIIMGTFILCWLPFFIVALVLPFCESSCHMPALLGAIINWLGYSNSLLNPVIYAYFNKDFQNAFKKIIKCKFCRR

[3] = target: T2, Adrenergic receptor alpha-1 (Rattus norvegicus, UniProt P15823+P23944+P43140); test: Binding affinity at Alpha-1 adrenergic receptor by inhibition of [3H]-prazosin binding to rat cortex
T2 sequence (P15823 whole entry): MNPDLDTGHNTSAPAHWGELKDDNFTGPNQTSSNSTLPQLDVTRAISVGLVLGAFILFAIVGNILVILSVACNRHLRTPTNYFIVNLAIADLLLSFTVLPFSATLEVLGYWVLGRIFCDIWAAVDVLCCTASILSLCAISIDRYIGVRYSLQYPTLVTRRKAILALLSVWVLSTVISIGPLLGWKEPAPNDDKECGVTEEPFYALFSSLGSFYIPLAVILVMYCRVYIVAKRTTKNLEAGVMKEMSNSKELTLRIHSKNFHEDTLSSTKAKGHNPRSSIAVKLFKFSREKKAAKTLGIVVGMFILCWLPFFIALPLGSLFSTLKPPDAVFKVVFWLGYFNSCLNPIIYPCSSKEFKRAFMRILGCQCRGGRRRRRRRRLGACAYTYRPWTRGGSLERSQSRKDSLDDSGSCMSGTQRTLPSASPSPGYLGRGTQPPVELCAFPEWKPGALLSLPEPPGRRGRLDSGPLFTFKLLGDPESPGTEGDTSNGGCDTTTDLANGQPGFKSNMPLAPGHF
T2 sequence (P23944 whole entry): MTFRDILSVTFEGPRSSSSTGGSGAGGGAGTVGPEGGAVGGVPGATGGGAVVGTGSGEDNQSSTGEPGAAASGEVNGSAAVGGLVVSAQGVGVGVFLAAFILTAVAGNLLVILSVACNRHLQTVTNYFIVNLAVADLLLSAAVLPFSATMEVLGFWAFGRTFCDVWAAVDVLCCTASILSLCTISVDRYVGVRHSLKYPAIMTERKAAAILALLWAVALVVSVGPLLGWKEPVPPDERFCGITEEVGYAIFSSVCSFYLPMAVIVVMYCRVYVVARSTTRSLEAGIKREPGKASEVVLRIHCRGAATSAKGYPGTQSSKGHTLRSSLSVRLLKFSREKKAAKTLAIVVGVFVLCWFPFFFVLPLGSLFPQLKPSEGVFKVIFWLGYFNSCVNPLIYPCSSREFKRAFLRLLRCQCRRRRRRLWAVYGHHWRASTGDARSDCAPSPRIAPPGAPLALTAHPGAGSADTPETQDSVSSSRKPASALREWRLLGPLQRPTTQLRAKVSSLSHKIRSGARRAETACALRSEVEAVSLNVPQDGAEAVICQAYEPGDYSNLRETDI
T2 sequence (P43140 whole entry): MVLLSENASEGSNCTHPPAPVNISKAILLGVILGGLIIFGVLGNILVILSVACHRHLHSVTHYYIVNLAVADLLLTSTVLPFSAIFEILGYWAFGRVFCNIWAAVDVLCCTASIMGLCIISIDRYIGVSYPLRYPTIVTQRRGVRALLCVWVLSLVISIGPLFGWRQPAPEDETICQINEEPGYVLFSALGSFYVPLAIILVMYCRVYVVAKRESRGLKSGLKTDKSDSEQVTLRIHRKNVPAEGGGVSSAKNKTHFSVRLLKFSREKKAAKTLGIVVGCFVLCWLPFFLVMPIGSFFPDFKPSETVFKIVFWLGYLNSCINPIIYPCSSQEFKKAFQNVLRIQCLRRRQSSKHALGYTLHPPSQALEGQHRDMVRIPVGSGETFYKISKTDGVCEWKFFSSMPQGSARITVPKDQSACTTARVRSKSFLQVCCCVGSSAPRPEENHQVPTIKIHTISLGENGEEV

[4] = In vitro oral metabolic bioavailability after incubation with hepatic microsomes; assay type: ADME, Liver; details: read-out: MF
[5] = target: T3, 5-hydroxytryptamine receptor 1A (Homo sapiens, UniProt P08908); test: Binding affinity at human 5-hydroxytryptamine 1A receptor by inhibition of [3H]8-OH-DPAT binding in Chinese hamster ovary cell line; assay type: cell-based
T3 sequence (P08908 whole entry): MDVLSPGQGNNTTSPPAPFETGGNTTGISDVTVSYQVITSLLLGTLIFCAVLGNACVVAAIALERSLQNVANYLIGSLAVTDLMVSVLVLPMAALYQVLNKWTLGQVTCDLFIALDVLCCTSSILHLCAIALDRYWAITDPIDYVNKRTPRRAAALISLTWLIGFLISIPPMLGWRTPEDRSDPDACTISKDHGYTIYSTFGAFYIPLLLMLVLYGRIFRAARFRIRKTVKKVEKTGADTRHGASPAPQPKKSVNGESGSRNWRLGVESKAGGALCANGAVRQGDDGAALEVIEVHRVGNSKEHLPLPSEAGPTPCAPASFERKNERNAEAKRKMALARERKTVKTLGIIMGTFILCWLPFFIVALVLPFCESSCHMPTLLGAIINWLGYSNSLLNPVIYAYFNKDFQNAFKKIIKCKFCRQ

[6] = target: T1, 5-hydroxytryptamine receptor 1A (Rattus norvegicus); test: Antagonistic activity at postsynaptic 5-hydroxytryptamine 1A receptor was measured by its ability to inhibit hypothermia elicited by s.c. administration of 8-OH-DPAT in rat;ranges from (0.37-4.27); assay type: functional, organism-based
[7] = target: T1, 5-hydroxytryptamine receptor 1A (Rattus norvegicus); test: Antagonistic activity at postsynaptic 5-hydroxytryptamine 1A receptor was measured by its ability to inhibit hypothermia elicited by s.c. administration of 8-OH-DPAT in rat;ranges from (0.10-6.20); assay type: functional, organism-based
[8] = target: T1, 5-hydroxytryptamine receptor 1A (Rattus norvegicus); test: Antagonistic activity at postsynaptic 5-hydroxytryptamine 1A receptor was measured by its ability to inhibit hypothermia elicited by s.c. administration of 8-OH-DPAT in rat;ranges from (0.80-5.80); assay type: functional, organism-based
[9] = target: T1, 5-hydroxytryptamine receptor 1A (Rattus norvegicus); test: Antagonistic activity at postsynaptic 5-hydroxytryptamine 1A receptor was measured by its ability to inhibit hypothermia elicited by s.c. administration of 8-OH-DPAT in rat;ranges from (0.60-1.60); assay type: functional, organism-based
[10] = target: T1, 5-hydroxytryptamine receptor 1A (Rattus norvegicus); test: Antagonistic activity at postsynaptic 5-hydroxytryptamine 1A receptor was measured by its ability to inhibit hypothermia elicited by s.c. administration of 8-OH-DPAT in rat;ranges from (1.50-16.5); assay type: functional, organism-based
[11] = target: T1, 5-hydroxytryptamine receptor 1A (Rattus norvegicus); test: Antagonistic activity at postsynaptic 5-hydroxytryptamine 1A receptor was measured by its ability to inhibit hypothermia elicited by s.c. administration of 8-OH-DPAT in rat;ranges from (0.40-2.70); assay type: functional, organism-based

Row | SMILES | Ratio [1] | Log Ki [3] | Fh [4] [%] | Ki [5] [nM] | also measured
1 | COc1ccc2c(c1)C[C@@H](N1CCN(c3cccc4c3OCCO4)CC1)[C@@H]2O (racemic) | – | -6.55 | 80 | 1.26 | –
2 | O[C@@H]1c2ccc(F)cc2C[C@H]1N1CCN(c2cccc3c2OCCO3)CC1 (racemic) | – | -6.15 | 65 | 1.26 | –
3 | O[C@@H]1c2ccc(F)cc2C[C@H]1N1CCC(c2cc(F)cc3c2OCCC3)CC1 (relative stereo) | 11 | -7.26 | – | 4.9 | –
4 | O[C@@H]1c2ccc(F)cc2C[C@H]1N1CCN(c2cc(Cl)cc3c2OCCO3)CC1 (relative stereo) | 645 | -6.07 | – | 1.32 | –
5 | O[C@@H]1c2ccc(F)cc2C[C@H]1N1CCN(c2cccc3c2OCCC3)CC1 (relative stereo) | 166 | -6.67 | – | 1.29 | –
6 | COc1ccc2c(c1)C[C@@H](N1CCN(c3cccc4c3OCCO4)CC1)[C@H]2O (relative stereo) | – | – | – | 23.4 | –
7 | O[C@@H]1c2ccc(F)cc2C[C@H]1N1CCC(O)(c2cccc3c2OCCO3)CC1 (relative stereo) | < 1 | -6.31 | – | > 1000 | –
8 | O[C@H]1c2ccc(F)cc2C[C@H]1N1CCN(c2cccc3c2OCCC3)CC1 (relative stereo) | – | – | – | 316 | –
9 | OCC1COc2c(cc(Cl)cc2N2CCN([C@@H]3Cc4cc(F)ccc4[C@H]3O)CC2)O1 (relative stereo) | 64 | -6.17 | – | 10.5 | –
10 | COc1ccc2c(c1)[C@H](O)[C@H](N1CCN(c3cccc4c3OCCO4)CC1)C2 (relative stereo) | – | – | – | 17.4 | –
11 | O[C@@H]1c2ccc(F)cc2C[C@H]1N1CCC(c2cccc3c2OCC3)CC1 (relative stereo) | 30 | -7.34 | – | 1.51 | –
12 | O[C@@H]1c2cc(F)c(F)cc2C[C@H]1N1CCC(c2cccc3c2OCCO3)CC1 (relative stereo) | 38 | -7.08 | 5 | 2.19 | ID50 [10]: 5 mg/kg
13 | O[C@@H]1c2ccc(F)cc2C[C@H]1N1CC=C(c2cccc3c2SCCC3)CC1 (relative stereo) | – | – | – | 11.7 | –
14 | O[C@@H]1c2cc(F)ccc2C[C@H]1N1CCN(c2cccc3c2OCCO3)CC1 (relative stereo) | 561 | -6.13 | 46 | 1.32 | ID50 [11]: 1 mg/kg
15 | O[C@H]1c2ccc(F)cc2C[C@H]1N1CCC(c2cccc3c2OCCO3)CC1 (relative stereo) | – | – | – | 26.9 | –
16 | O[C@H]1c2ccc(F)cc2C[C@H]1N1CCC(O)(c2cccc3c2OCCO3)CC1 (relative stereo) | – | – | – | > 1000 | –
17 | COc1cc2c(cc1OC)[C@@H](O)[C@H](N1CCC(c3cccc4c3OCCO4)CC1)C2 (relative stereo) | 1.5 | -6.9 | – | 79.4 | –
18 | O[C@H]1c2ccccc2C[C@H]1N1CC=C(c2cccc3c2OCCO3)CC1 (relative stereo) | – | – | – | 22.9 | –
19 | Cc1ccc2c(c1)C[C@@H](N1CCC(c3cccc4c3OCCO4)CC1)[C@@H]2O (relative stereo) | 14.5 | -7.77 | – | 1.17 | –
20 | COc1ccc2c(c1)C[C@@H](N1CCN(c3cccc4c3OCCO4)CC1)[C@@H]2O (stereo in doubt; (+)) | – | – | – | 6.61 | –
21 | O[C@@H]1c2ccc(F)cc2C[C@H]1N1CCN(c2cccc3c2OCCO3)CC1 (stereo in doubt; (-)) | – | – | – | 2.04 | –

The next molecules have a lower Ki [5] than those just listed; values first:

Row | Ratio [1] | Log Ki [3] | Fh [4] [%] | Ki [5] [nM] | SMILES | also measured
22 | 158 | -6.9 | 4 | 0.794 | c1ccc2c(c1)CC(N1CCN(c3cccc4c3OCCO4)CC1)C2 | ID50 [2]: 1.44 mg/kg
23 | 603 | -6.57 | 62 | 0.447 | COc1ccc2c(c1)[C@@H](O)[C@H](N1CCN(c3cccc4c3OCCO4)CC1)C2 (relative stereo) | ID50 [6]: 1.25 mg/kg
24 | 1260 | -6.03 | 71 | 0.741 | O=[N+]([O-])c1ccc2c(c1)[C@@H](O)[C@H](N1CCN(c3cccc4c3OCCO4)CC1)C2 (relative stereo) | ID50 [7]: 0.9 mg/kg
25 | 66 | -7.44 | – | 0.55 | Cc1ccc2c(c1)[C@@H](O)[C@H](N1CCC(c3cccc4c3OCCO4)CC1)C2 (relative stereo) | –
26 | 76 | -7.64 | – | 0.302 | O[C@@H]1c2ccc(F)cc2C[C@H]1N1CCC(c2cccc3c2OCCC3)CC1 (relative stereo) | –
27 | 102 | -7.1 | 8 | 0.776 | O[C@@H]1c2cc(F)ccc2C[C@H]1N1CCC(c2cccc3c2OCCO3)CC1 (relative stereo) | ID50 [8]: 2.1 mg/kg
28 | 56 | -7.53 | 8 | 0.525 | O[C@@H]1c2cc3c(cc2C[C@H]1N1CCC(c2cccc4c2OCCO4)CC1)OCO3 (relative stereo) | ID50 [9]: 1 mg/kg
29 | 148 | -7.19 | 7 | 0.437 | O[C@@H]1c2ccc(F)cc2C[C@H]1N1CCC(c2cccc3c2OCCO3)CC1 (relative stereo) | –
30 | – | – | – | 0.631 | O[C@@H]1c2ccc(F)cc2C[C@H]1N1CCN(c2cccc3c2OCCO3)CC1 (stereo in doubt; (+)) | –
31 | – | – | – | 1.02 | COc1ccc2c(c1)C[C@@H](N1CCN(c3cccc4c3OCCO4)CC1)[C@@H]2O (stereo in doubt; (-)) | –
